# Measurements: patent US20150329498A1, “IRAK INHIBITORS AND USES THEREOF” (Nimbus Iris, Inc., priority 2014, published 2015)
# pIC50: −log10 of the molar value.
# Assays:
# [1] = biological target: T1, IRAK4 (Homo sapiens, UniProt Q9NWZ3); test: IRAK-4 activity inhibition assay (Caliper); type: biochemical; details: 3.5 nM IRAK4, 1.5 μM Peptide 8, 37 μM ATP
# T1 construct: purchased CARNA Bioscience 09-145
# T1 sequence (Q9NWZ3 1-460): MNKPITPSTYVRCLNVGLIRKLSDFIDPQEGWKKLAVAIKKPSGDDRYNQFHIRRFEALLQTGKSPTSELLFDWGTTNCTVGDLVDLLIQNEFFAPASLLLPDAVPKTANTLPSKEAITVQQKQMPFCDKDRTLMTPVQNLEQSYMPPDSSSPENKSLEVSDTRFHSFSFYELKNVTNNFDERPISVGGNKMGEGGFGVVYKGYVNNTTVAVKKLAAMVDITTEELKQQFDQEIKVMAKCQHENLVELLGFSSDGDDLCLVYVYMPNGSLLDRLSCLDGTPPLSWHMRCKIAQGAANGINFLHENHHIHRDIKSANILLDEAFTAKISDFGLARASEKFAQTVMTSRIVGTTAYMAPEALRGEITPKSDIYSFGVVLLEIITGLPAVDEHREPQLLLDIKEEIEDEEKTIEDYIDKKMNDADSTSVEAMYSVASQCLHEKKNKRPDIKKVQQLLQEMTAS
# In short: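 Mobility-shift (Caliper) assay with 3.5 nM IRAK4 in 50 mM HEPES pH 7.5, 0.0015% Brij-35, 5 mM MgCl2, 1 mM MnCl2, 2 mM DTT. Enzyme preincubated with compound 10 min at room temperature, then 1.5 μM peptide 8 and 37 μM ATP for 40 min. Inhibition from conversion % relative to DMSO and no-enzyme controls; 10-point IC50.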
# [2] = tested on: TNFα production in human whole blood; test: R848 induced TNFα production in human whole blood; type: cell-based; details: 1 uM R848, 20 hours
# Method: (§1) Compounds of the present invention were also studied in in vitro cytokine production assays. Exemplary protocols follow.
# (§2) Human whole blood and hWBC assays: Human whole blood was diluted by combining whole blood with no serum RPMI medium at a ratio of 1:1. 180 ul/well of the diluted whole blood/well was added to a 96 well plate. For WBC assay 100,000 cells/well were seeded in a 96-well plate with a volume of 100 ul/well. To make the compound master plate 9 ul of 30 mM compound solution was added into the wells in the assigned rows, then serial solutions with 4x dilutions were made in DMSO. That is, 9 uL of 100% DMSO were added into each of the rest wells and 3 uL of compound solution was taken from the one-step higher concentration solution and mixed well with the DMSO. An intermediate compound dilution plate was made by mixing 4 uL of the compound solution from the compound master plate with 196 uL of no serum RPMI medium. hWBC or human whole blood was treated for 0.5 hour by adding 20 uL/well of the compound and the control solutions from the intermediate compound plate to the cell plate. 80 uL/well or 20 uL/well of stimulant were then added to the human whole blood or hWBC respectively. […] The supernatants were then collected and cytokine levels were measured with ELISA for TNFα (R&D Systems, #DY210) and IFNα (R&D Systems, #41100-2) per manufacturer's instruction.
# [3] = tested on: TNFα production in human white blood cells (hWBC); test: R848 induced TNFα production in hWBC; type: cell-based; details: 1 uM R848, 20 hours
# Method: as §1, §2
# [4] = tested on: TNFα production in human whole blood; test: LPS induced TNFα production in human whole blood; type: cell-based; details: 1 ug/mL LPS, 20 hours
# Method: as §1, §2
pIC50 [1],pIC50 [2],pIC50 [3],pIC50 [4],Compound
≥ 5.30,≥ 6.60,≥ 6.60,≥ 6.60,"N#Cc1ccc2ncnc(N[C@H]3CC[C@H](N4CCC5(CC4)CC5)CC3)c2c1 [Compound I-7, 4-(((1r,4r)-4-(6-azaspiro[2.5]octan-6-yl)cyclohexyl)amino)-quinazoline-6-carbonitrile]"
≥ 5.30,6.00 to 6.60,≥ 6.60,≥ 6.60,"N#Cc1ccc2ncnc(N[C@H]3CC[C@H](N4CCOCC4)CC3)c2c1 [Compound I-3, 4-(((1r,4r)-4-morpholinocyclohexyl)amino)quinazoline-6-carbonitrile]"
